How the values were obtained:
Caco-2 cells = experiment: Bi-directional Caco-2 cell permeability assay; conditions: for permeability classification in the A>B direction: Caco-2; for efflux transporter substrate finding: efflux ratio larger than 2
Procedure: (§1) The bi-directional Caco-2 cell permeability assay was performed as described as follows: Caco-2 cells (ECACC) were seeded onto 24-well Transwell plates at 2×10^5 cells per well and used in confluent monolayers after a 21 day culture at 37° C. under 5% CO2. Test and control compounds (propranolol, vinblastine), prepared in DMSO, were added (10 μM, 0.1% DMSO final, n=2) to donor compartments of the Transwell plate assembly in assay buffer (Hanks balanced salt solution supplemented with 25 mM HEPES, adjusted to pH 7.4) for both apical to basolateral (A>B) and basolateral to apical (B>A) measurements. Incubations were performed at 37° C., with samples removed from both donor and acceptor chambers at T=0 and 1 hour and compound analysed by mass spectrometry (LC-MS/MS) including an analytical internal standard.
(§2) Apparent permeability (Papp) values were determined from the relationship: Papp=[CompoundAcceptor T=end]×VAcceptor/([CompoundDonor T=0]×VDonor)/incubation time×VDonor/Area×60×10-6 cm/s
(§3) Where V is the volume of each Transwell compartment (apical 125 μL, basolateral 600 μL), and concentrations are the relative MS responses for compound (normalized to internal standard) in the donor chamber before incubation and acceptor chamber at the end of the incubation.
(§4) Area=area of cells exposed for drug transfer (0.33 cm2).
(§5) Efflux ratios (Papp B>A/Papp A>B) were calculated for each compound from the mean Papp values in each direction.
(§6) Lucifer Yellow (LY) was added to the apical buffer in all wells to assess viability of the cell layer.
(§7) Compound recovery from the wells was determined from MS responses (normalized to internal standard) in donor and acceptor chambers at the end of incubation compared to response in the donor chamber pre-incubation.

[1] = Bi-directional Caco-2 cell permeability assay; conditions: human, Caco-2, pH 7.4
Procedure: as §1, §2, §3, §4, §5, §6, §7

[2] = tested on: HCV-Jc-1 tagged to a yellow fluorescent protein; conditions: after 48 h of infection; Liu et al., Antimicrob. Agents Chemother. 2015; cited from earlier work
[3] = tested on: HCV (Jc-1 Wild-type virus); experiment: Efficacy testing of Sofosbuvir and n-Propyl-Sofosbuvir in HCV-infected Huh7.5 cells, quantitative PCR of HCV RNA in supernatant; assay type: cell-based, Hepatitis C virus; conditions: for virus reduction / Ct-value (threshold cycle) of HCV-RNA: single application 48 h post infection; for virus reduction: two days treatment, inferred from Ct 28 vs 25; for Ct-value (threshold cycle) of HCV-RNA: μM range down to lowest dose, RNA extracted two days later, SYBR Green kit, untreated control Ct around 25 (FIG. 1); for antiviral profile (reduction of viral titer): single application, 72 h, concentrations down to 9 nM, Altona HCV quantification kit (FIG. 4); for amount of viral RNA (viral load) / reduction of viral RNA: two-time application, highest concentrations; for amount of viral RNA (viral load): CE-labeled PCR HCV quantification kit, controls around 10^7 IU/ml (FIG. 7); for reduction of viral RNA: versus controls
Procedure: HCV histochemistry and determination of virus titers. To determine virus titers, the protocol described by Linden bach et al. (2005) is slightly modified. 1×10^4 Huh-7.5 cells or 0.7×10^4 Lunet cells were seeded per 96-well 24 h prior to infection. Six wells are infected simultaneously with the same dilution of filtered cell culture supernatants of HCV transfected or infected cells. Usually, the first dilution is a 1:10 dilution followed by 1:6 dilutions. 72 h after infection, the cells are washed once with PBS and then fixed in ice-cold methanol for 20 min at −20° C. Afterwards, the cells are washed with PBS and then permeabilized with 0.5% Triton X-100 in PBS for 5 min at RT. The first antibody detecting the HCV NSSA protein (9E10) is diluted 1:2000 in PBS and was incubated on the cells for 1 h. Then the cells are washed again three times with PBS and stained with the secondary antibody (goat a-mouse coupled to HRP, Sigma) 1:200 in PBS for 45 min at RT. To detect the HCV positive cells, the wells are first washed again three times with PBS and then the HRP activity is detected by the addition of 30 μl Carbazole substrate/96-well for 15 min at RT. Afterwards, the substrate is replaced with water and the wells were analyzed by light microscopy for positive cells. The 50% tissue culture infectious dose (TCID50) is calculated based on the methods described by Spearman and Karber. By this, the concentrations of a virus isolation needed to infect 50% of a given number of wells is determined (Spearman, 1908). qPCR of viral supernatant. Total RNA was extracted by the Altostar system according to the protocol of the manufacturer. A Power SYBR Green RNA-to-Ct 1-step kit (Applied Biosystems) is used to quantify the amount of HCV RNA. Primers specific for the 5′ UTR are 5′-TGCGGAACCGGTGAGTACA-3′ (forward) and […]. The PCR program conditions are as follows: 30 min at 48° C. for reverse transcription, 10 min at 95° C. for enzyme activation, and 40 cycles of amplification with 15 s at 95° C. for denaturation and 1 min at 60° C. for annealing and extension. Standard curve reactions are run in parallel by using serially diluted Jc1/Gluc2A plasmid ranging from 2.0×10^7 to 2.0×10^0 copies. To confirm obtained for experiment 3 (FIGS. 4 and 7), PCR was performed using the Atlona HCV-quantification kit.
Efficacy Testing of Sofosbuvir and n-Propyl-Sofosbuvir (compound I″a). Huh7.5 cells (1×10^4 per well) were seeded in a 96-well plate. The following day cells were infected with 8500 TCID50/well of HCV (Jc-1 Wild-type virus) for infection. After 48 h cells were treated with Sofosbuvir, n-Propyl-Sofosbuvir and as a negative control with the solvent used for Sofosbuvir, n-Propyl-Sofosbuvir (DMSO/EtOH) at concentrations given in the Figures. Two days or three later, supernatants were harvested and RNA was extracted by the Altostar system according to the protocol of the manufacturer. Quantitative PCR was performed using the Atlona HCV-quantification kit as recommended by the manufacturer.
In one set of experiments, Sofosbuvir and n-Propyl-Sofosbuvir were applied 48 h post infection and again 24 h later as indicated by FIG. 5.
All experiments shown represent the mean of at least two independent sets of data performed in duplicates.

SMILES	permeability classification in the A>B direction (Caco-2 cells)	efflux transporter substrate finding (Caco-2 cells)	Papp A→B at 1 h, 10 μM [1]	efflux ratio at 1 h, 10 μM [1]	IC50 [2]	virus reduction [3]	Ct-value (threshold cycle) of HCV-RNA [3]	antiviral profile (reduction of viral titer) [3]	amount of viral RNA (viral load) [3]	reduction of viral RNA [3]
CC(C)OC(=O)[C@H](C)N[P@](=O)(OC[C@H]1O[C@@H](n2ccc(=O)[nH]c2=O)[C@](C)(F)[C@@H]1O)Oc1ccccc1 [Sofosbuvir, (S)-isopropyl 2-(((S)-(((2R,3R,4R,5R)-5-(2,4-dioxo-3,4-dihydropyrimidin-1(2H)-yl)-4-fluoro-3-hydroxy-4-methyltetrahydrofuran-2-yl)methoxy)(phenoxy)phosphoryl)-amino)propanoate]	low permeable	substrates of efflux transporters	4 ×10⁻⁶ cm/s	4.6	> 10 µM	about 1 log	around 28	comparable antiviral profile	6.5×10^5 IU/ml	about 95%
CCCOC(=O)[C@H](C)N[P@](=O)(OC[C@H]1O[C@@H](n2ccc(=O)[nH]c2=O)[C@](C)(F)[C@@H]1O)Oc1ccccc1 [n-Propyl-Sofosbuvir, (S)-n-propyl 2-(((S)-(((2R,3R,4R,5R)-5-(2,4-dioxo-3,4-dihydropyrimidin-1(2H)-yl)-4-fluoro-3-hydroxy-4-methyltetrahydrofuran-2-yl)methoxy)(phenoxy)phosphoryl)-amino)propanoate]	low permeable	substrates of efflux transporters	2 ×10⁻⁶ cm/s	4.4	–	about 1 log	around 28	comparable antiviral profile	6.5×10^5 IU/ml	about 95%
CC[C@]1(O)C[C@@H]2CN(CCc3c([nH]c4ccccc34)[C@@](C(=O)OC)(c3cc4c(cc3OC)N(C)[C@H]3[C@@](O)(C(=O)OC)[C@H](OC(C)=O)[C@]5(CC)C=CCN6CC[C@]43[C@@H]65)C2)C1 [vinblastine]	–	–	5 ×10⁻⁶ cm/s	–	–	–	–	–	–	–
